Test results as given in PubChem BioAssay (NCI).
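Cultured in 96-well plates, cells were exposed to test compound for 48 hours across five concentrations. TGI is the concentration that stops growth completely.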

Columns and labels:
Experiment in all cases: inhibition of tumour cell growth, NCI panel, 48 h
OVCAR-3 ovarian = test system: OVCAR-3 ovarian
CCRF-CEM leukemia = test system: CCRF-CEM leukemia
SW-620 colon = test system: SW-620 colon
SN12C renal = test system: SN12C renal
HS 578T breast = test system: HS 578T breast
NCI-H460 lung = test system: NCI-H460 lung
SK-MEL-2 melanoma = test system: SK-MEL-2 melanoma
NCI-H23 lung = test system: NCI-H23 lung
HCC-2998 colon = test system: HCC-2998 colon
MCF7 breast = test system: MCF7 breast

| SMILES | TGI (OVCAR-3 ovarian) [µM] | TGI (CCRF-CEM leukemia) [µM] | TGI (SW-620 colon) [µM] | TGI (SN12C renal) [µM] | TGI (HS 578T breast) [µM] | TGI (NCI-H460 lung) [µM] | TGI (SK-MEL-2 melanoma) [µM] | TGI (NCI-H23 lung) [µM] | TGI (HCC-2998 colon) [µM] | TGI (MCF7 breast) [µM] |
| --- | --- | --- | --- | --- | --- | --- | --- | --- | --- | --- |
| COc1ccc(C[C@H]2NC(=O)/C=C/C[C@@H]([C@H](C)[C@H]3O[C@@H]3c3ccccc3)OC(=O)[C@H](CC(C)C)OC(=O)[C@H](C)CNC2=O)cc1 | > 0.0001 | > 6.99e-05 | > 0.0001 | > 0.0001 | > 6.66e-05 | > 0.0001 | > 0.0001 | > 7.34e-05 | > 0.0001 | > 0.0001 |
| O=c1[nH]c2nccnc2c2c([N+](=O)[O-])cccc12 | > 100 | > 100 | > 100 | > 100 | > 100 | > 100 | > 100 | > 100 | > 100 | > 100 |
| OC12C3C4CC5C(C4[C@@H]1Br)C2[C@@](O)(c1c(F)c(F)c(F)c(F)c1F)C53 (stereo not given in full) | 65.8 | > 100 | > 100 | > 100 | 97.5 | > 100 | 69.2 | > 100 | > 100 | 43.7 |
| c1ccc2c(c1)CCN(C1=NCCO1)C2 | > 10 | > 10 | > 10 | > 10 | > 10 | > 10 | > 10 | > 10 | > 10 | > 10 |
| COC(=O)C1=COC(C)C2C[n+]3ccc4c([nH]c5ccccc54)c3CC12 (stereo not given) | > 100 | > 100 | > 100 | > 100 | > 100 | > 100 | > 100 | > 100 | > 100 | > 100 |
| O=S(=O)(O)c1ccc2c(N=Nc3ccccc3)c(O)c(S(=O)(=O)O)cc2c1 | > 100 | > 100 | > 100 | > 100 | > 100 | > 100 | > 100 | > 100 | > 100 | > 100 |
| CC1(C)C2CCC1(C)C(N/C(=C(/C(Cl)=C(Cl)Cl)[N+](=O)[O-])n1nnc3ccccc31)C2 (stereo not given) | 32.6 | > 100 | > 100 | > 100 | 43.6 | > 100 | 61 | 52.2 | > 100 | > 100 |
| CCN(CC)c1ccc(/C=c2\nc(-c3ccccc3)n3c2nc2ccccc23)cc1 | > 100 | 11.7 | > 100 | > 100 | > 100 | > 100 | > 100 | > 100 | 23.3 | > 100 |
| CCN(CC)c1ccc2c(c1)Oc1ccc(N(C(C)=O)c3ccccc3)cc1C21OC(=O)c2ccccc21 (stereo not given) | > 100 | > 100 | > 100 | > 100 | > 100 | > 100 | > 100 | > 100 | > 100 | > 100 |
| COc1cc2c(cc1OC)C1=Cc3ccc(OC)c(OC)c3C(C#N)N1CC2 (stereo not given) | > 100 | > 100 | > 100 | > 100 | > 100 | > 100 | 43.4 | > 100 | 51.1 | > 100 |
| CC1(CCc2ccccc2)CC1(Br)Br (stereo not given) | 39.9 | 67.7 | > 100 | 38.1 | > 100 | > 100 | 36.1 | > 100 | 76.2 | > 100 |
| NNC(=O)Cc1cccnc1 | > 100 | > 100 | > 100 | > 100 | > 100 | > 100 | > 100 | > 100 | > 100 | > 100 |
| O=c1[nH]nc(Cc2ccccc2)n1/N=C/c1ccc([N+](=O)[O-])o1 | 29.8 | > 100 | > 100 | 46 | 7.29 | > 100 | 16 | 74.8 | 71.6 | > 100 |
| O=C1C=C(N2CCCC2)C(=O)c2c(O)ccc(O)c21 | > 10 | 5.19 | > 10 | > 10 | > 10 | > 10 | > 10 | > 1 | > 10 | > 10 |
| Nc1nc2cc(CNc3ccc(C(=O)O)cc3)ccc2nc1-c1ccccc1 | > 100 | > 100 | > 100 | > 100 | > 100 | > 100 | > 100 | > 100 | > 100 | > 100 |
| CC(/C=N/N(C)C1=NCCCCN1)=N/N(C)C1=NCCCCN1 | > 100 | > 100 | > 100 | > 100 | > 100 | > 100 | > 100 | > 100 | > 100 | > 100 |

| SMILES | TGI (OVCAR-3 ovarian) [µM] | TGI (CCRF-CEM leukemia) [µM] | TGI (SW-620 colon) [µM] | TGI (SN12C renal) [µM] | TGI (HS 578T breast) [µM] | TGI (NCI-H460 lung) [µM] | TGI (SK-MEL-2 melanoma) [µM] | TGI (NCI-H23 lung) [µM] | TGI (HCC-2998 colon) [µM] | TGI (MCF7 breast) [µM] |
| --- | --- | --- | --- | --- | --- | --- | --- | --- | --- | --- |
| CN(C)c1ccc(/C=N/n2c(-c3ccccc3)nc3ccccc3c2=O)cc1 | > 100 | > 100 | > 100 | > 100 | 92.4 | > 100 | > 100 | > 100 | > 100 | > 100 |
| O=C1c2n[nH]nc2C(=O)c2n[nH]nc21 | > 100 | > 100 | > 100 | > 100 | > 100 | > 100 | > 100 | > 100 | > 100 | > 100 |
| c1ccc2c(c1)nc1n2CCNC1 | > 100 | > 100 | > 100 | > 100 | > 100 | > 100 | > 100 | > 100 | > 100 | > 100 |
| O=C(O)CS(=O)c1ccc2c3c(cccc13)C(=O)c1ccccc1-2 (stereo not given) | > 100 | > 100 | > 100 | > 100 | > 100 | > 100 | > 100 | > 100 | > 100 | > 100 |
| O=C1OC(C2Cc3ccccc3C2=O)c2ccccc21 (stereo not given) | > 100 | > 100 | > 100 | > 100 | > 100 | > 100 | > 100 | > 100 | > 100 | > 100 |
| CC(=O)N1CC(C)(C)c2c1cc(C)c(O)c2C | > 100 | > 100 | > 100 | > 100 | > 100 | > 100 | > 100 | > 100 | > 100 | > 100 |
| COc1ccc(C2c3cc4c(cc3OC(NNC(N)=O)C2C)OCO4)cc1 (stereo not given) | 14.3 | > 29.4 | > 100 | > 100 | > 100 | 98.9 | > 100 | > 86.1 | 35 | > 100 |
| O=C(O)C(F)(F)C(F)(F)C(F)(F)C(F)(F)C(=O)O | > 100 | > 100 | > 100 | > 100 | > 100 | > 100 | > 100 | > 100 | > 100 | > 100 |
| CN1[C@@H]2CCCC[C@H]2N(C)P1(=O)C(O)/C=C/c1ccccc1 (stereo not given in full) | > 100 | > 100 | > 100 | > 100 | > 100 | > 100 | > 100 | > 100 | > 100 | > 100 |
| COC(=O)c1c(O)ccc2c1c1c(n2Cc2ccc(OC)cc2)C(=O)c2ccccc2C1=O | 43.9 | 0.296 | 45.6 | 7.35 | 58.1 | 33.3 | 25.6 | 32.2 | 7.18 | 26.7 |
| CC(=O)OC(CC(C)C)P1(=O)N(CC(C)(C)C)[C@@H]2CCCC[C@H]2N1CC(C)(C)C (stereo not given in full) | 23.1 | > 93.3 | 29 | 24.4 | 25.3 | 22 | 19.6 | 23.1 | 18.3 | 17.4 |
| CC(=O)[C@H]1CC[C@H]2[C@@H]3CCC4=CC(=O)CC[C@]4(C)[C@H]3CC[C@]12C | 35 | 48 | > 100 | 41.1 | 19.7 | 42.4 | 44.3 | 35.7 | 31.4 | 50.4 |
| N#Cc1nc(C(F)(F)F)oc1N | > 100 | > 100 | > 100 | > 100 | > 100 | > 100 | > 100 | > 100 | > 100 | > 100 |
| O=C(O)CCC(C(=O)O)N1C(=O)c2ccccc2C1=O (stereo not given) | > 100 | > 100 | > 100 | > 100 | > 100 | > 100 | > 100 | > 100 | > 100 | > 100 |
| O=c1c2ncn(C3CCCCO3)c2n(-c2ccccc2)c(=S)n1-c1ccccc1 (stereo not given) | > 81.3 | > 100 | > 100 | > 100 | 53.6 | > 100 | > 79.7 | 64.3 | > 100 | > 100 |
